From patent US20250353856A1, “COMPOUND ACTIVE AS INHIBITOR OF COLONY STIMULATION FACTOR-1 RECEPTOR (CSF-1R)” (Norwegian University of Science and Technology (NTNU), priority 2022, published 2025) come the findings set out here.

By IC50 is commonly meant the midpoint of a concentration-inhibition curve.

Where two headings read alike, the source gives them in different places.

In one test the target is CSF1R enzyme (Homo sapiens (Human), UniProt P07333). The test is described as follows: CSF1R enzymatic inhibitory assay (Z'-LYTE, FRET). Format: biochemical. The settings on record: Z'-LYTE assay platform, 10-point titrations in duplicates, ATP equal to Km.
Test [1] addresses CSF1R in bone-marrow derived macrophages from mice (Mus musculus (Mouse), UniProt P09581). Put plainly: Effect of CSF1R inhibitors on MAPK signalling in mouse bone-marrow derived macrophages. In kind it is cell-based. The settings on record: for BMDM fold relative to PLX3397: Fold change: IC50 inhibitor/IC50 PLX3397, mouse BMDM.

Sequence of CSF1R in bone-marrow derived macrophages from mice (P09581 20-977): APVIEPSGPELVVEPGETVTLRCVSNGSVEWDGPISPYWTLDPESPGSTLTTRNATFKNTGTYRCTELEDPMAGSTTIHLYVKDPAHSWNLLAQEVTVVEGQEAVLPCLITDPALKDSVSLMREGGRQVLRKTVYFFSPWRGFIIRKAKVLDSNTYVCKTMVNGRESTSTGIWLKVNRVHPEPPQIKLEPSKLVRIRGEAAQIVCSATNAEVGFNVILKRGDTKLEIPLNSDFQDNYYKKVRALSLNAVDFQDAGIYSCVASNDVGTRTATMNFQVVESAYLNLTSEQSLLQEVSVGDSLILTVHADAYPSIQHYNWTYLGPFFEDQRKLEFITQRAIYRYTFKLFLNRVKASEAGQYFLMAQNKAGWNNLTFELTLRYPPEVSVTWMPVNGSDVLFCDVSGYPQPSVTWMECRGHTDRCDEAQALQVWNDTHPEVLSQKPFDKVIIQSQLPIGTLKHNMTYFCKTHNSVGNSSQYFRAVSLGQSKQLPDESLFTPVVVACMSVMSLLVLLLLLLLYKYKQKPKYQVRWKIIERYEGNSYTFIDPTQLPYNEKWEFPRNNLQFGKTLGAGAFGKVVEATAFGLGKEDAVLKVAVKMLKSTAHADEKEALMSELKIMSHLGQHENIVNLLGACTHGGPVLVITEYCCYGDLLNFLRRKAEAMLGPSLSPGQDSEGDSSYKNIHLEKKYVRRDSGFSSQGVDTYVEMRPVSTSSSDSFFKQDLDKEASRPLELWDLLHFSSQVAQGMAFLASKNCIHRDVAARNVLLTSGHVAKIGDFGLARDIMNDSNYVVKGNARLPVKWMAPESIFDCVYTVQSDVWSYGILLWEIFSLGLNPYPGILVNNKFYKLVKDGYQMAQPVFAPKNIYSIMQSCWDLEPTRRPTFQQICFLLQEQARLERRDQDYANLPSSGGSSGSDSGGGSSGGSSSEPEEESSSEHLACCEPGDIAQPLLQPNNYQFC
Sequence of CSF1R enzyme (P07333 20-972): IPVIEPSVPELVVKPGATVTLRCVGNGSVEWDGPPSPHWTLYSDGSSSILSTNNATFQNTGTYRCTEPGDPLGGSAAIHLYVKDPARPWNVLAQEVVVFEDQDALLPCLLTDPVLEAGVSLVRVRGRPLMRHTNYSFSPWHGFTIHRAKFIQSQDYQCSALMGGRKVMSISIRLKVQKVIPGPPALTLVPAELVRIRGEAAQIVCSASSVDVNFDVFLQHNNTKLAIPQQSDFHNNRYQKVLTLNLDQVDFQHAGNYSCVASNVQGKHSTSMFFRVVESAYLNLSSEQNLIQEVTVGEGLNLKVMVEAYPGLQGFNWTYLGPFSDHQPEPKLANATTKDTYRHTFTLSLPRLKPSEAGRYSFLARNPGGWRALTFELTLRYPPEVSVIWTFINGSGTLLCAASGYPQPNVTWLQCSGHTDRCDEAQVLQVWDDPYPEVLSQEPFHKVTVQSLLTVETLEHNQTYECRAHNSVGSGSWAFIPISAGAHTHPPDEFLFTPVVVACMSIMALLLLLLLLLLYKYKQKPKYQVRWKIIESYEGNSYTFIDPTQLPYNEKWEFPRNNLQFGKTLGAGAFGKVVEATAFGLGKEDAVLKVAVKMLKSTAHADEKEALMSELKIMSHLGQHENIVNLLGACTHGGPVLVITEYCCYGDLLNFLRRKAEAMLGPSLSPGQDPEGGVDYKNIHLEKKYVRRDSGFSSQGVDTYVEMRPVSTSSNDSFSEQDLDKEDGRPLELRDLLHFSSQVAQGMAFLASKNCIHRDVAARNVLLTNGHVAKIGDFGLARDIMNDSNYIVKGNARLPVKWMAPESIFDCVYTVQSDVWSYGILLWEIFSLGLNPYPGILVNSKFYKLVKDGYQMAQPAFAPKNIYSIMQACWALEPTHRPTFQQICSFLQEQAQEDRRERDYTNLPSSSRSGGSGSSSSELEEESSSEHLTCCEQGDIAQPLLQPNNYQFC

In the case of `CC(c1ccccc1)c1ncnc2[nH]c(-c3ccc(CO)cc3)cc12` (centres unmarked) [Compound 5i, (4-(4-(1-Phenylethyl)-7H-pyrrolo[2,3-d]pyrimidin-6-yl)phenyl)methanol], the figures for the half-inhibitory concentration (IC50) (at CSF1R enzyme; in test [1] (read-out: BMDM IC50)) were 3.8 nM and greater than 500 nM, respectively. The “BMDM fold relative to PLX3397” value in test [1] is greater than 5 fold.
As for `OCc1ccc(-c2cc3c(C(F)c4ccccc4)ncnc3[nH]2)cc1` (centres unmarked) [Compound 5k, (4-(4-(Fluoro(phenyl)methyl)-7H-pyrrolo[2,3-d]pyrimidin-6-yl)phenyl)methanol], the values for the IC50 (against CSF1R enzyme; in test [1] (read-out: BMDM IC50)) were 2.7 nM and 100 nM, respectively. In addition, the “BMDM fold relative to PLX3397” value in test [1] turned out to be 1.3 fold.
Regarding `OCc1ccc(-c2cc3c(Cc4ccccc4F)ncnc3[nH]2)cc1` [Compound 5b, (4-(4-(2-Fluorobenzyl)-7H-pyrrolo[2,3-d]pyrimidin-6-yl)phenyl)methanol], the 50% inhibitory concentration (IC50) at CSF1R enzyme is 0.7 nM; in test [1] (read-out: BMDM IC50), 487 nM. In test [1], the “BMDM fold relative to PLX3397” value was determined as 5 fold.
In turn, `c1ccc(Cc2ncnc3[nH]c(-c4ccccc4)cc23)cc1` [Compound 15, 4-Benzyl-6-phenyl-7H-pyrrolo[2,3-d]pyrimidine] yielded a 50% inhibitory concentration (IC50) against CSF1R enzyme of 7.2 nM.
In the case of `OCc1ccc(-c2cc3c(Cc4ccc(C(F)(F)F)cc4)ncnc3[nH]2)cc1` [Compound 5h, (4-(4-(4-(Trifluoromethyl)benzyl)-7H-pyrrolo[2,3-d]pyrimidin-6-yl)phenyl)methanol], the IC50 on CSF1R enzyme was 3.6 nM; in test [1] (read-out: BMDM IC50), greater than 500 nM. In test [1], the “BMDM fold relative to PLX3397” value was greater than 5 fold.
For `CC(C)(C)c1ccc(Cc2ncnc3[nH]c(-c4ccc(CO)cc4)cc23)cc1` [Compound 5g, (4-(4-(4-(tert-Butyl)benzyl)-7H-pyrrolo[2,3-d]pyrimidin-6-yl)phenyl)methanol] the same measures were 1.6 nM, 174 nM and 1.7 fold.
For `CCC(c1ccccc1)c1ncnc2[nH]c(-c3ccc(CO)cc3)cc12` (centres unmarked) [Compound 5j, (4-(4-(1-Phenylpropyl)-7H-pyrrolo[2,3-d]pyrimidin-6-yl)phenyl)methanol] the same measures were 29 nM, greater than 500 nM and greater than 5 fold.
`CC(C)n1cc(-c2cc3c(Cc4ccccc4)ncnc3[nH]2)cn1` [Compound 17, 4-Benzyl-6-(1-isopropyl-1H-pyrazol-4-yl)-7H-pyrrolo[2,3-d]pyrimidine] had an IC50 at CSF1R enzyme of 2 nM.
In the case of `OCc1ccc(-c2cc3c(Cc4cccc(F)c4)ncnc3[nH]2)cc1` [Compound 5c, (4-(4-(3-Fluorobenzyl)-7H-pyrrolo[2,3-d]pyrimidin-6-yl)phenyl)methanol], the IC50 was 1.9 nM at CSF1R enzyme and greater than 500 nM in test [1] (read-out: BMDM IC50). For the same compound, the “BMDM fold relative to PLX3397” value in test [1] is reported as greater than 5 fold.
`CS(=O)(=O)Nc1ccc(-c2cc3c(Cc4ccccc4)ncnc3[nH]2)cc1` [Compound 14, N-(4-(4-Benzyl-7H-pyrrolo[2,3-d]pyrimidin-6-yl)phenyl)methanesulfonamide]: half-maximal inhibition against CSF1R enzyme (IC50) was put at 2.1 nM.
Same read-out and setting: the value for `CNS(=O)(=O)c1ccc(-c2cc3c(Cc4ccccc4)ncnc3[nH]2)cc1` [Compound 16, 4-(4-Benzyl-7H-pyrrolo[2,3-d]pyrimidin-6-yl)-N-methylbenzenesulfonamide] was 1.7 nM.
The same measure, in the same setting: the figure for `CP(C)(=O)c1ccc(-c2cc3c(Cc4ccccc4)ncnc3[nH]2)cc1` [Compound 19, (4-(4-Benzyl-7H-pyrrolo[2,3-d]pyrimidin-6-yl)phenyl)dimethylphosphine oxide] is 1.5 nM.
On to `CC(C)c1ccc(Cc2ncnc3[nH]c(-c4ccc(CO)cc4)cc23)cc1` [Compound 5f, (4-(4-(4-Isopropylbenzyl)-7H-pyrrolo[2,3-d]pyrimidin-6-yl)phenyl)methanol], for which the half-inhibitory concentration (IC50) on CSF1R enzyme was 0.6 nM; in test [1] (read-out: BMDM IC50), 71 nM. Further, in test [1], the “BMDM fold relative to PLX3397” value was determined as 0.8 fold.
With `OCc1ccc(-c2cc3c(Cc4ccc(F)cc4)ncnc3[nH]2)cc1` [Compound 5d, (4-(4-(4-Fluorobenzyl)-7H-pyrrolo[2,3-d]pyrimidin-6-yl)phenyl)methanol], the results for the IC50 (against CSF1R enzyme; in test [1] (read-out: BMDM IC50)) were 3.1 nM and 320 nM, respectively. The “BMDM fold relative to PLX3397” value in test [1] turned out to be 4.1 fold.
The like results for `OCc1ccc(-c2cc3c(Oc4ccccc4)ncnc3[nH]2)cc1` [Compound 9, (4-(4-Phenoxy-7H-pyrrolo[2,3-d]pyrimidin-6-yl)phenyl)methanol] were, in that order, 1.5 nM, 107 nM and 1 fold.
The like results for `OCc1ccc(-c2cc3c(Cc4ccccc4)ncnc3[nH]2)cc1` [Compound 5a, (4-(4-Benzyl-7H-pyrrolo[2,3-d]pyrimidin-6-yl)phenyl)methanol] were, in that order, 1.3 nM, 130 nM and 1 fold.
In test [1], `FC(F)(F)c1ccc(CNc2ccc(Cc3c[nH]c4ncc(Cl)cc34)cn2)cn1` [PLX3397, reference compound] displayed a half-maximal inhibitory concentration (IC50) of 70 to 150 nM.
Take `Cc1ccc(Cc2ncnc3[nH]c(-c4ccc(CO)cc4)cc23)cc1` [Compound 5e, (4-(4-(4-Methylbenzyl)-7H-pyrrolo[2,3-d]pyrimidin-6-yl)phenyl)methanol]: the concentration for half-maximal inhibition (IC50) is 1 nM against CSF1R enzyme and greater than 300 nM in test [1] (read-out: BMDM IC50). The “BMDM fold relative to PLX3397” value in test [1] is greater than 3 fold.
At CSF1R enzyme, `Cc1nn(C)cc1-c1cc2c(Cc3ccccc3)ncnc2[nH]1` [Compound 18, 4-Benzyl-6-(1,3-dimethyl-1H-pyrazol-4-yl)-7H-pyrrolo[2,3-d]pyrimidine] gave an IC50 of 0.4 nM.
On the same count and under the same terms, the value for `COc1ccc(-c2cc3c(Cc4ccccc4)ncnc3[nH]2)cc1` [Compound 10, 4-Benzyl-6-(4-methoxyphenyl)-7H-pyrrolo[2,3-d]pyrimidine] was 11 nM.
